Data taken from ChEMBL document CHEMBL3430912, “GSK Tres Cantos Anti-Kinetoplastid Screening (TCAKS) Data”.
pIC50: −log10 of the molar value.

Experiments:
[1] = system: Trypanosoma cruzi; assay: GSK_TCAKS: pIC50 Trypanosoma cruzi viability assay using beta-GAL activity. This assay was run at single shot at 5uM compound concentration per well. The biological reagents consisted of NIH-3T3 host cells and trypomastigotes parasitic cells; both cell types were set to a 3.3 * 10^5 cells/mL dilution in assay DMEM by means of a CASY cell counter device using a 60um capillary. 6 uL of the mixture were dispensed per well (about 1 * 10^3 host-cells and 1 * 10^3 parasites) with a Multidrop Combi dispenser. […] In all wells, the percentage of DMSO never exceeded 0.5%. Plates incubated for four days at 37C, 5% CO2. The substrate used for the assay fluorescence intensity (FLINT) readout was resorufin-beta-D-galactopiranoside (Sigma-Aldrich) at 5uM per well. It was diluted in PBS supplemented with the soft detergent Igepal (Fluka).; type: functional, organism-based, Mus musculus; settings: Tulahuen, NIH3T3
[2] = system: Leishmania donovani; assay: GSK_TCAKS: pIC50 Leishmania donovani viability assay using fluorescence intensity. Assay plates (1536-well) were prepared by adding 30nL per well of compound. For single shot assay, the final compound concentration was 5uM. […] Briefly, eGFP LdBOB axenic amastigotes were harvested, fixed and counted in a CASY cell counter (Roche-Applied Science). A final concentration of 1.5 * 10^5 cells per well were prepared in amastigote media containing 500 U/mL penicillin/streptomycin (Invitrogen) and 6uL was dispensed to each experimental well using a Multidrop Combi dispenser (Thermo Scientific). 6uL of assay media was dispensed to control columns used as reference for 100% compound response. Following incubation for 72 h at 37C, 5% CO2, 2 uL of resazurin was added to each well at a final concentration of 0.5 mM in phosphate buffered saline (PBS) with IGEPAL (Sigma-Aldrich), 0.05% (v/v).; type: functional, organism-based
[3] = system: Leishmania donovani; assay: (§1) GSK_TCAKS: pIC50 Leishmania donovani Imaging: THP-1 Host Macrophages. Assay plates (384-well) were prepared by adding 250nL of compound to each well. For single shot assay, the final compound concentration was 5 uM. […] Automated image analysis was performed with a script developed on Acapella High Content Imaging and Analysis Software (PerkinElmer). Output: THP-1 cell count were reported for each well.; type: functional, organism-based, Homo sapiens
[4] = system: Leishmania donovani; assay: as §1, with “Infected” for “THP-1 Host”, “Percent of infected macrophage cells” for “THP-1 cell count”; type: functional, organism-based, Homo sapiens; settings: THP-1
[5] = system: Trypanosoma brucei brucei; assay: GSK_TCAKS: pIC50 Trypanosoma brucei viability assay using fluorescence intensity. Assay plates (1536-well) were prepared by dispensing 25nL of compound solution per well using an Echo acoustic dispenser (Labcyte).; type: functional, organism-based; settings: Lister 427, 2 h
[6] = system: Leishmania donovani; assay: as §1, with “Amastigotes/Macrophages.” for “THP-1 Host Macrophages.”, “Average number of amastigotes per macrophage” for “THP-1”, “cell” for “cell count”; type: functional, organism-based, Homo sapiens; settings: THP-1
[7] = system: Trypanosoma cruzi; assay: (§2) GSK_TCAKS: pIC50 Trypanosoma cruzi Imaging: Infected Cells. […] Cells were then washed once with PBS before infection. T. cruzi trypomastigotes, collected at days 5 to 8 after infection from LLC-MK2 parasite infected cultures, were allowed to swim out for 4h at 37C from a centrifuged pellet (2,500 rpm/10 min/room temperature). Trypomastigotes were then collected and counted in a CASY Cell Counter. Trypomastigotes, in supplemented DMEM, were added to H9c2 cultures in a multiplicity of infection of 1 and incubated for 18 h. Cells were washed once with PBS before incubation of the infected H9c2 monolayer with trypsin (Life-Technologies) to detach cells from the flask. Cells were counted in a CASY Cell Counter using a 150 um capillary and their density set at 5 * 10^4 cells per mL in supplemented assay DMEM. Infected H9c2 were dispensed into 384-well poly-lysine coated assay plates at 50uL per well using a Multidrop Combi dispenser. After seeding them, the plates were incubated at 37C, 5% CO2 for 72h. Cultures were then fixed and stained by addition of 50 uL of a solution containing 8% formaldehyde and 4 uM DRAQ5 DNA dye (BioStatus, UK) per well. […] Five images were collected per well for reliable statistical analysis. Automated image analysis was performed with a script developed on Acapella High Content Imaging and Analysis Software (PerkinElmer). Output: percentage of infected cells per well as a second infection marker.; type: functional, organism-based, Rattus norvegicus; settings: H9c2, 4 h
[8] = system: Trypanosoma cruzi; assay: as §2, with “H2C9” for “Trypanosoma cruzi”, “H9c2 Host Cardiomyocytes.” for “Infected Cells.”, “Number” for “percentage”, “H9c2 Host Cardiomyocytes nuclei to determine drug-related cytotoxicity.” for “infected cells per well as a second infection marker.”; type: functional, organism-based, Rattus norvegicus; settings: H9c2, 4 h
[9] = system: Trypanosoma cruzi; assay: GSK_TCAKS: pIC50 Trypanosoma cruzi Imaging: Amastigotes/Cell. […] Cells were then washed once with PBS before infection. T. cruzi trypomastigotes, collected at days 5 to 8 after infection from LLC-MK2 parasite infected cultures, were allowed to swim out for 4h at 37C from a centrifuged pellet (2,500 rpm/10 min/room temperature). Trypomastigotes were then collected and counted in a CASY Cell Counter. Trypomastigotes, in supplemented DMEM, were added to H9c2 cultures in a multiplicity of infection of 1 and incubated for 18 h. Cells were washed once with PBS before incubation of the infected H9c2 monolayer with trypsin (Life-Technologies) to detach cells from the flask. Cells were counted in a CASY Cell Counter using a 150 um capillary and their density set at 5 * 10^4 cells per mL in supplemented assay DMEM. Infected H9c2 were dispensed into 384-well poly-lysine coated assay plates at 50uL per well using a Multidrop Combi dispenser. After seeding them, the plates were incubated at 37C, 5% CO2 for 72h. Cultures were then fixed and stained by addition of 50 uL of a solution containing 8% formaldehyde and 4 uM DRAQ5 DNA dye (BioStatus, UK) per well. […] Five images were collected per well for reliable statistical analysis. Automated image analysis was performed with a script developed on Acapella High Content Imaging and Analysis Software (PerkinElmer). Output: number of amastigotes per cell as infection level measurement.; type: functional, organism-based, Rattus norvegicus; settings: H9c2, 4 h
[10] = GSK_TCAKS: pIC50 HepG2 human cell line viability assay using luminiscence. […] Seeding density was checked to ensure that new mono-layers were not more than 50% confluent at the time of harvesting. Cell suspension was added to 500 mL of the same medium at a final density of 1.2 * 10^5 cells/mL. This cell suspension was dispensed (25 uL, 3000 cells per well) into 384-well clear-bottom plates using a Multidrop Combi dispenser. Prior to addition of the cell suspension, the screening compounds (250 nL) were pre-dispensed into the plates with an Echo liquid handler. Plates were incubated for 48 h at 37C, 5% CO2. After incubation, plates equilibrated at room temperature for 30 min before proceeding to develop the luminescent signal. The signal developer, CellTiter-Glo Reagent, was allowed to equilibrate at room temperature for 30 min and added to the plates (25uL per well) using a Multidrop Combi dispenser. Plates were left for 10 min at room temperature for stabilization and then read using a ViewLux.; type: toxicity, cell-based
[11] = target: Sterol 14-alpha demethylase (Trypanosoma cruzi (strain CL Brener), UniProt Q7Z1V1); assay: GSK_TCAKS: pIC50 CYP51 from Trypanosoma cruzi.; type: functional
Chain of Sterol 14-alpha demethylase (Q7Z1V1 whole entry): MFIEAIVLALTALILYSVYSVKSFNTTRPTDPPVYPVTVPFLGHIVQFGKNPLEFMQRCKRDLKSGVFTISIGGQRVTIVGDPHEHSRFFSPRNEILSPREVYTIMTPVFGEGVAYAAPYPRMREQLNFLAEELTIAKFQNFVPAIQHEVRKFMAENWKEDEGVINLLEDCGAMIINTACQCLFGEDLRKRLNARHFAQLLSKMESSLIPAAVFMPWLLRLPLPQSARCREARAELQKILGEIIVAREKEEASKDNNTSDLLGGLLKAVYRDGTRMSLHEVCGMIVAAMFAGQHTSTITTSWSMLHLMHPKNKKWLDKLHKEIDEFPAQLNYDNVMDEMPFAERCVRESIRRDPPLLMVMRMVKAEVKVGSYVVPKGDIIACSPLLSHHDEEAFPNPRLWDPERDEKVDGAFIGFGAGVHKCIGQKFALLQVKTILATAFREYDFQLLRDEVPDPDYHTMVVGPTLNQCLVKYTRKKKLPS

[12] = system: Trypanosoma brucei brucei; assay: GSK_TCAKS: pIC50 Trypanosoma brucei viability assay using luminiscence. Assay plates (1536-well) were prepared. T. brucei cultures were harvested and counted in a CASY cell counter. A parasite suspension was prepared at a final concentration of 5 * 10^4 cells/mL in complete HMI9 medium and 6uL was dispensed to all wells containing compounds using a Multidrop Combi dispenser. 6uL of HMI9 media with 0.4% DMSO were dispensed to control columns. Plates were incubated for 24 h at 37C, 5% CO2 then tempered for 10 min at room temperature. ATP content was quantified by adding 4 uL of CellTiter-Glo Reagent (Promega) according to the manufacturer's instructions. Luminescence was measured using a ViewLux.; type: functional, organism-based; settings: Lister 427, CASY

| SMILES | pIC50 [1] | pIC50 [2] | pIC50 [3] | pIC50 [4] | pIC50 [5] | pIC50 [6] | pIC50 [7] | pIC50 [8] | pIC50 [9] | IC50 at 48 h [10] | pIC50 [11] | pIC50 [12] |
| --- | --- | --- | --- | --- | --- | --- | --- | --- | --- | --- | --- | --- |
| CCOc1ccc(CC(=O)N2c3ccccc3CC2C(=O)NC)cc1 (stereo not drawn) | < 4.30 | < 4.30 | < 4.30 | < 4.30 | 6.30 | < 4.30 | < 4.30 | < 4.30 | < 4.30 | > 100 µM | < 4.00 | 6.30 |
| O=C(CSc1nnc2ccc(-c3ccc(F)cc3)nn12)N1CCCCC1 | 5.60 | < 4.30 | 5.20 | < 4.30 | 6.40 | < 4.30 | 5.70 | < 4.30 | 6.00 | > 100 µM | < 4.00 | 6.30 |
| CC(C)(C)CC(=O)NCCc1csc(-c2ccc(F)cc2)n1 | 5.90 | < 4.30 | 4.80 | 4.50 | 6.20 | 4.80 | 6.00 | < 4.30 | 6.10 | > 100 µM | 4.70 | 6.30 |
| O=C(NC(CO)c1ccc(F)cc1)c1ccc(-c2c[nH]c3ncccc23)s1 (stereo not drawn) | 5.00 | 4.50 | 5.00 | 4.60 | 6.60 | 4.70 | 4.80 | 5.40 | 4.90 | 39.8 µM | 5.90 | 6.10 |
| Nc1nc(-c2ccccc2)cc(-c2nc3cccnc3[nH]2)n1 | 5.50 | 5.40 | < 4.30 | 5.60 | 5.00 | 5.60 | 5.70 | 4.90 | 5.80 | 39.8 µM | < 4.00 | 4.80 |
| CN(C)S(=O)(=O)c1cccc(CSc2nnc(-c3ccc4c(c3)OCO4)o2)c1 | 6.30 | 6.00 | < 4.30 | 5.70 | 4.50 | 6.20 | 7.00 | < 4.30 | 7.30 | > 100 µM | 4.90 | < 4.40 |
| N#CN1CC[C@@H](NC(=O)Nc2ccccc2Oc2ccccc2)C1 | 5.30 | 5.50 | 4.60 | 5.30 | 6.00 | 5.40 | 5.40 | 4.70 | 5.30 | 39.8 µM | < 4.00 | 5.10 |
| CCc1ccc2nc(NC(=O)c3cc(N4CCOCC4)ccn3)sc2c1 | 5.60 | 5.70 | 5.00 | 5.90 | 6.30 | 6.10 | 6.10 | 4.40 | 6.30 | > 100 µM | < 4.00 | 6.00 |
| Nc1nonc1-c1nc2cncc(C(=O)N3CC[C@H](N)C3)c2n1CC1CC1 | < 4.30 | < 4.30 | 4.90 | 4.70 | 6.20 | 4.40 | < 4.30 | < 4.30 | 4.90 | > 100 µM | 4.90 | 6.10 |
